Data taken from ChEMBL document CHEMBL5678816, “A Next-Generation TRK Kinase Inhibitor Overcomes Acquired Resistance to Prior TRK Kinase Inhibition in Patients with TRK Fusion-Positive Solid Tumors” (Cancer Discov, 2017).
Active and inactive are the calls of the source. The calls are words filed in the database; no cut-off is given here.

Key:
[1] = Oral bioavailability in rat at 10 mg/kg administered as 1% carboxymethylcellulose 0.5% Tween 80 formulation by LC-MS analysis; assay type: ADME, organism-based; conditions: in vivo
Homo sapiens [2] = organism: Homo sapiens; assay: Inhibition of CK1_y (unknown origin) at 1 uM in presence of ATP relative to control; values are per cent of control
[3] = target: Inhibitor of nuclear factor kappa-B kinase subunit beta (Homo sapiens) (UniProt O14920); assay: Inhibition of IKKbeta (unknown origin) at 1 uM in presence of ATP relative to control; values are per cent of control
MDA-MB-231 = assay: Inhibition of cell proliferation in human MDA-MB-231 cells upto 10 umol/L incubated for 72 hrs by DAPI staining based analysis; assay type: functional; conditions: dose <= 10.0 µmol/L
[4] = target: Casein kinase I isoform gamma-1 (Homo sapiens) (UniProt Q9HCP0); assay: Inhibition of CK1gamma1 (unknown origin) at 1 uM in presence of ATP relative to control; values are per cent of control
[5] = target: Serine/threonine-protein kinase Sgk3 (Homo sapiens) (UniProt Q96BR1); assay: Inhibition of SGK3 (unknown origin) at 1 uM in presence of ATP relative to control; values are per cent of control
Serine/threonine-protein kinase Sgk3 (Homo sapiens), sequence (Q96BR1 whole entry): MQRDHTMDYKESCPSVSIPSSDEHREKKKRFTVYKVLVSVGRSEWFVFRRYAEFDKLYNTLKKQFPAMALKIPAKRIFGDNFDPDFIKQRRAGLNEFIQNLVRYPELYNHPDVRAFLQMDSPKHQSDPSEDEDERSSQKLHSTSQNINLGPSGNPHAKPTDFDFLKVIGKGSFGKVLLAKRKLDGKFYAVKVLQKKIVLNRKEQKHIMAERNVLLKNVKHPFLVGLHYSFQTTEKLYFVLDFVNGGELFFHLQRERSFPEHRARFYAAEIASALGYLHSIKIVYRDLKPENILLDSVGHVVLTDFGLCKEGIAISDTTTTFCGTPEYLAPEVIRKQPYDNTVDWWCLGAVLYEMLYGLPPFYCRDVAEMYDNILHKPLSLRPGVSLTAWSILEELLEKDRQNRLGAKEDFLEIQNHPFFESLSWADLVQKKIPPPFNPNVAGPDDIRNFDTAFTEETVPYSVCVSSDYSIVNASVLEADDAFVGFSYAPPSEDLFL

[6] = AUC in pediatric patient with recurrent ETV6-NTRK3-rearranged infantile fibrosarcoma at 20 mg administered twice a day as liquid formulation for 1 day by LC-MS/MS analysis; assay type: ADME; conditions: human, in vivo
[7] = AUC in adult patient with recurrent LMNA-NTRK1 rearranged colorectal cancer at 100 mg administered twice a day as powder-in-capsule or liquid formulation for 15 day by LC-MS/MS analysis; assay type: ADME; conditions: human, in vivo, po
[8] = target: Serine/threonine-protein kinase Nek11 (Homo sapiens) (UniProt Q8NG66); assay: Inhibition of NEK11 (unknown origin) at 1 uM in presence of ATP relative to control; values are per cent of control
Serine/threonine-protein kinase Nek11 (Homo sapiens), sequence (Q8NG66 whole entry): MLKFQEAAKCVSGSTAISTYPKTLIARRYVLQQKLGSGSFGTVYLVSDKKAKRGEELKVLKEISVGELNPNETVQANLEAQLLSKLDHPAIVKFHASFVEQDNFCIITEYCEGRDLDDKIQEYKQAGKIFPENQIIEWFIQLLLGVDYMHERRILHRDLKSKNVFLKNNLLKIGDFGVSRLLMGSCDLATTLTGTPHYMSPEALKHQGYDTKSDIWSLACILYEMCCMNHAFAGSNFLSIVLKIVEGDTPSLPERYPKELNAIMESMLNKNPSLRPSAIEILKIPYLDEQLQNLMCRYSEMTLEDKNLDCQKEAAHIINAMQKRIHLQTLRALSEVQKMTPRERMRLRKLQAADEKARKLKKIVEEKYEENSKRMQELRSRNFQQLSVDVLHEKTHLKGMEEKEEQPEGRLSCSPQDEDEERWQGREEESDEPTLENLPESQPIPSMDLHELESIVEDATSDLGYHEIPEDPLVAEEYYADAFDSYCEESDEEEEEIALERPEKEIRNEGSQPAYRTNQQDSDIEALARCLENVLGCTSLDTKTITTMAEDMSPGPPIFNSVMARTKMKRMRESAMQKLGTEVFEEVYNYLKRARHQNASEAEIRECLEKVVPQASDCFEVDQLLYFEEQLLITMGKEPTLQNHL

[9] = Clearance in mouse at 1 mg/kg, iv administered as 20% hydroxypropyl-beta-cyclodextrin formulation by LC-MS analysis; assay type: ADME, organism-based; conditions: in vivo
647-V = assay: Inhibition of cell proliferation in human 647-V cells upto 10 umol/L incubated for 72 hrs by DAPI staining based analysis; assay type: functional; conditions: dose <= 10.0 µmol/L
[10] = target: Protein kinase C beta type (Homo sapiens) (UniProt P05771); assay: Inhibition of PKCbetall (unknown origin) at 1 uM in presence of ATP relative to control; values are per cent of control
[11] = target: Ribosomal protein S6 kinase alpha-4 (Homo sapiens) (UniProt O75676); assay: Inhibition of MSK2 (unknown origin) at 1 uM in presence of ATP relative to control; values are per cent of control
NIH3T3 = assay: Antitumor activity against mouse NIH3T3 cells harboring extracellular domain deleted TRKA G595R mutant implanted in nu/nu NCr mouse assessed as inhibition of tumor growth at 30 to 300 mg/kg, po administered twice daily for 12 days; assay type: functional, organism-based; conditions: dose 30-300 mg/kg, time 12.0 day
[12] = target: Ribosomal protein S6 kinase alpha-5 (Homo sapiens) (UniProt O75582); assay: Inhibition of MSK1 (unknown origin) at 1 uM in presence of ATP relative to control; values are per cent of control
[13] = target: Serine/threonine-protein kinase pim-2 (Homo sapiens) (UniProt Q9P1W9); assay: Inhibition of Pim-2 (unknown origin) at 1 uM in presence of ATP relative to control; values are per cent of control
Serine/threonine-protein kinase pim-2 (Homo sapiens), sequence (Q9P1W9 whole entry, looked up): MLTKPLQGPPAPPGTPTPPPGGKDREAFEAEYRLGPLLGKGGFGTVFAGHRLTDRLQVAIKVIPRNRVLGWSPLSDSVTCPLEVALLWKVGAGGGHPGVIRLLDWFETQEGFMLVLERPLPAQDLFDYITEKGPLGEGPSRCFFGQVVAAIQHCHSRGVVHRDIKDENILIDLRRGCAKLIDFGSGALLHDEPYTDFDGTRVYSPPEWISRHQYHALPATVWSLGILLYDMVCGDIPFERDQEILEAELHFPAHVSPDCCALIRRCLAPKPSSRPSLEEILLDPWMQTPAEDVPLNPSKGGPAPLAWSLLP

[14] = target: Ephrin type-A receptor 2 (Homo sapiens) (UniProt P29317); assay: Inhibition of EphA2 (unknown origin) at 1 uM in presence of ATP relative to control; values are per cent of control
SU-DHL10 = assay: Inhibition of cell proliferation in human SU-DHL-10 cells upto 10 umol/L incubated for 72 hrs by DAPI staining based analysis; assay type: functional; conditions: dose <= 10.0 µmol/L
[15] = target: Ephrin type-B receptor 3 (Homo sapiens) (UniProt P54753); assay: Inhibition of EphB3 (unknown origin) at 1 uM in presence of ATP relative to control; values are per cent of control
Homo sapiens [16] = organism: Homo sapiens; assay: Inhibition of p70S6K (unknown origin) at 1 uM in presence of ATP relative to control; values are per cent of control
[17] = Inhibition of human extracellular domain deleted TRKA V573M mutant expressed in mouse NIH3T3 cells assessed as reduction in TRKA phosphorylation incubated for 1 hrs by ELISA; assay type: cell-based; conditions: NIH3T3, 1 h
[18] = target: Activated CDC42 kinase 1 (Homo sapiens) (UniProt Q07912); assay: Inhibition of TNK2 (unknown origin) at 1 uM in presence of ATP relative to control; values are per cent of control
Activated CDC42 kinase 1 (Homo sapiens), sequence (Q07912 whole entry, looked up): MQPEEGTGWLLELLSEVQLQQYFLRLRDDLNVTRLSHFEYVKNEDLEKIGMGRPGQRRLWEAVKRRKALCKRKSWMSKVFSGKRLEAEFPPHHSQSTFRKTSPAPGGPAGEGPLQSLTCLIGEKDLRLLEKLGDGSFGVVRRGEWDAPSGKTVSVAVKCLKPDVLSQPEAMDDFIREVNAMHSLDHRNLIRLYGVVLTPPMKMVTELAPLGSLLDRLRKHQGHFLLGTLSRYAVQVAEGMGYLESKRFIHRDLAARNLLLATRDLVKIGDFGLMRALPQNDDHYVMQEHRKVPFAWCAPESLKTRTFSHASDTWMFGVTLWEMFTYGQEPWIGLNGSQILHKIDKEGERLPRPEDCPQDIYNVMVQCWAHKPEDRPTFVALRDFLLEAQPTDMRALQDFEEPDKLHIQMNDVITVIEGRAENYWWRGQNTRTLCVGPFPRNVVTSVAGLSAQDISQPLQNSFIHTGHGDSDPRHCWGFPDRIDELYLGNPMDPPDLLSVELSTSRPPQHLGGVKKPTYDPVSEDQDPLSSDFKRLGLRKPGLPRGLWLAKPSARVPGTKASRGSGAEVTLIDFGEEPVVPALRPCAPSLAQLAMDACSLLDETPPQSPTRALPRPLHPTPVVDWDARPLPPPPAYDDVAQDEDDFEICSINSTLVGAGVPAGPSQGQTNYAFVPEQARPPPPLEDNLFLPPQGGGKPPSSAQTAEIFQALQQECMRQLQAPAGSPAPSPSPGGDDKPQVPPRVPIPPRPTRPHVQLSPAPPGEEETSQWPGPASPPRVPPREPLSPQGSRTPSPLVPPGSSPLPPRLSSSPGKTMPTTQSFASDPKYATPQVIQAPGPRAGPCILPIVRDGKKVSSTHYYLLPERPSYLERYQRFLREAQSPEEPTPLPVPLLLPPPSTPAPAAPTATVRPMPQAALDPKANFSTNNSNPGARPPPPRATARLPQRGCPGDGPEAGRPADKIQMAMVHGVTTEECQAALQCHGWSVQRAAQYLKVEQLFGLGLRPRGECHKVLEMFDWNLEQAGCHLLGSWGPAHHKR

[19] = target: Cyclin-dependent kinase 5/CDK5 activator 1 (Homo sapiens) (UniProt Q00535+Q15078); assay: Inhibition of CDK5/p35 (unknown origin) at 1 uM in presence of ATP relative to control; values are per cent of control
[20] = Cmax in adult patient with recurrent LMNA-NTRK1 rearranged colorectal cancer at 100 mg administered twice a day as powder-in-capsule or liquid formulation for 15 days by LC-MS/MS analysis; assay type: ADME; conditions: human, in vivo, po, time 15 day
[21] = target: Inhibitor of nuclear factor kappa-B kinase subunit alpha (Homo sapiens) (UniProt O15111); assay: Inhibition of IKKalpha (unknown origin) at 1 uM in presence of ATP relative to control; values are per cent of control
Inhibitor of nuclear factor kappa-B kinase subunit alpha (Homo sapiens), sequence (O15111 whole entry): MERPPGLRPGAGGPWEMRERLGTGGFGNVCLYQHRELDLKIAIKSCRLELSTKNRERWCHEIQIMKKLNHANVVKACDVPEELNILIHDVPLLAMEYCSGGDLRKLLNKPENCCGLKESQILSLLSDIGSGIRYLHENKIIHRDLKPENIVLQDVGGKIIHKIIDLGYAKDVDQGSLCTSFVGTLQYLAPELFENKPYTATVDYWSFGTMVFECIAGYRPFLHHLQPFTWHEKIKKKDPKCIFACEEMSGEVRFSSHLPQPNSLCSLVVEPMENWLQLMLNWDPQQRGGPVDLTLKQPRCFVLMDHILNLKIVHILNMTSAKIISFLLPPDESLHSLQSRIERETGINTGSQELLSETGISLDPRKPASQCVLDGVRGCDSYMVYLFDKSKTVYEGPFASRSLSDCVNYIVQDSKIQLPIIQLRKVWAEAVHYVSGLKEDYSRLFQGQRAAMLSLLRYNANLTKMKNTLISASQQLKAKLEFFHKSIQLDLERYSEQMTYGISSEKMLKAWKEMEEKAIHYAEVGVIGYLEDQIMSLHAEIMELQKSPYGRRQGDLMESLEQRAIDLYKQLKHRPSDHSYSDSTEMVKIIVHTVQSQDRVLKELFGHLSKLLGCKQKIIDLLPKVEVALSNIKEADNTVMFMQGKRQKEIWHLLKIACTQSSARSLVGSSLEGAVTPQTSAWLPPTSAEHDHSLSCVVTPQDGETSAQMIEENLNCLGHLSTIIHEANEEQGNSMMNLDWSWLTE

[22] = target: Dual specificity mitogen-activated protein kinase kinase 1 (Homo sapiens) (UniProt Q02750); assay: Inhibition of MEK1 (unknown origin) at 1 uM in presence of ATP relative to control; values are per cent of control
[23] = target: Tyrosine-protein kinase Mer (Homo sapiens) (UniProt Q12866); assay: Inhibition of Mer (unknown origin) at 1 uM in presence of ATP relative to control; values are per cent of control
Tyrosine-protein kinase Mer (Homo sapiens), sequence (Q12866 whole entry): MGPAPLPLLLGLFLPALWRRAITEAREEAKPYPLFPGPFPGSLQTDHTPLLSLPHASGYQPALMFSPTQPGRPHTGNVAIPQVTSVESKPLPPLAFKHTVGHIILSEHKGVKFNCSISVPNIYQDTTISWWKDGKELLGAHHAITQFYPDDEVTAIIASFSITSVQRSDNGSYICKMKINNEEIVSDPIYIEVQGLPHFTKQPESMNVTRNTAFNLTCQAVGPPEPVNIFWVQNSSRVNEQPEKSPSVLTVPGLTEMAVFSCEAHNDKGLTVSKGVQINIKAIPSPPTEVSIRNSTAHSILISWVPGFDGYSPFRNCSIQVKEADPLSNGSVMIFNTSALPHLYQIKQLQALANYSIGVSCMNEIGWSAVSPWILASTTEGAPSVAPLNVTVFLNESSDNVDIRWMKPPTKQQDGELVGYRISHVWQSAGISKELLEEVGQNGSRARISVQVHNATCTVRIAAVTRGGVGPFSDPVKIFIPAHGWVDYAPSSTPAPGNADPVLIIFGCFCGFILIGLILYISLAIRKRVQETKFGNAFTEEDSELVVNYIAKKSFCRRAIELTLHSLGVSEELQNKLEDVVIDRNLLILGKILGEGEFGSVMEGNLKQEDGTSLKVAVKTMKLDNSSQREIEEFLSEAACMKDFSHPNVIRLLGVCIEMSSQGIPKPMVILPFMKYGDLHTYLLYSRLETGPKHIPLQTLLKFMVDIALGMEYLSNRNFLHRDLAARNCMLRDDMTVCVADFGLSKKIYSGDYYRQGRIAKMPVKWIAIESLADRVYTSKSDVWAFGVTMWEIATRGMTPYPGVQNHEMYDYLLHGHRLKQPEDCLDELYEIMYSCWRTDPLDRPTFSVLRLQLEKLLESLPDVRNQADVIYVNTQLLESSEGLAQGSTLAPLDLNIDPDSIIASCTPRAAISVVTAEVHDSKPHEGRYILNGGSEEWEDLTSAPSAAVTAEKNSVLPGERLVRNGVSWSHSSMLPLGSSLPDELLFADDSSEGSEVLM

[24] = target: RAC-gamma serine/threonine-protein kinase (Homo sapiens) (UniProt Q9Y243); assay: Inhibition of AKT3 (unknown origin) at 1 uM in presence of ATP relative to control; values are per cent of control
RAC-gamma serine/threonine-protein kinase (Homo sapiens), sequence (Q9Y243 whole entry): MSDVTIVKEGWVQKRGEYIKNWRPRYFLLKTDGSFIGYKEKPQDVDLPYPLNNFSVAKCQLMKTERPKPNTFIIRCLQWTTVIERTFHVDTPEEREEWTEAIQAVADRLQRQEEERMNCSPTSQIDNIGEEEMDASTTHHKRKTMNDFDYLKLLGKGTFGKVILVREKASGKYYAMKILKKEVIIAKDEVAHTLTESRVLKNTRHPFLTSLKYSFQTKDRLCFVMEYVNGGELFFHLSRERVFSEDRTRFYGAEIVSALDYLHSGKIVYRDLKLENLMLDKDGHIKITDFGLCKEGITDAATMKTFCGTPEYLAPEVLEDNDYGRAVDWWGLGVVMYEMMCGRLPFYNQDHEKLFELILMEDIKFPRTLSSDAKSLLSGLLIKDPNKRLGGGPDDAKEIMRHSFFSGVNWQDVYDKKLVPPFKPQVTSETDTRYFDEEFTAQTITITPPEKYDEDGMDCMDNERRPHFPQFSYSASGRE

bioavailability [1]: 24% | residual activity (Homo sapiens [2]): 114% | residual activity [3]: 119% | residual activity [4]: 112% | residual activity [5]: 114% | AUC at 24 h [6]: 615 ng·h/mL | AUC at 360 h [7]: 2620 ng·h/mL | residual activity [8]: 112% | clearance [9]: 4.83 mL/min/kg | residual activity [10]: 90.5% | residual activity [11]: 115% | residual activity [12]: 131% | residual activity [13]: 120% | residual activity [14]: 79.5% | residual activity [15]: 101% | residual activity (Homo sapiens [16]): 117% | IC50 [17]: 29 nM | residual activity [18]: 10% | residual activity [19]: 110% | Cmax [20]: 673 ng/mL | residual activity [21]: 96.5% | residual activity [22]: 122% | residual activity [23]: 117% | residual activity [24]: 104%
Compound: C[C@@H]1CCc2ncc(F)cc2[C@H]2CCCN2c2ccn3ncc(c3n2)C(=O)N1 [SELITRECTINIB]
inhibition (MDA-MB-231): inactive | inhibition (647-V): inactive | Activity (NIH3T3): Active | inhibition (SU-DHL10): inactive
